# Assays:
# [1] = target: T1, APT1 (Homo sapiens, UniProt O75608); assay: In vitro kinetic assay and emission spectra of DPP-1, DPP-2, DPP-3 with purified APT1 (with detergent); assay type: biochemical
# T1 construct: His-tag; made in house; host or cells: E. coli ROSETTA DE3
# Description: (§1) 50 μL of 7.5 μM DPP1-3 in HEPES (20 mM, pH=7.4, 150 mM NaCl, 0.1% Triton X-100) were added to a 384-well black flat bottom plate (Corning Life Sciences, Corning, N.Y., United States of America) and placed in an Infinite M200 Pro (Tecan, Mannedorf, Switzerland) plate reader at 37° C. for 5 min to warm. 25 μL of either 4-(2-hydroxyethyl)-1-piperazineethanesulfonic acid (HEPES) buffer alone or HEPES buffer containing 150 nM APT1 or APT2, was added using a multi-channel pipette, resulting in a final concentration of 5 μM DPP1-3 and 50 nM APT1 or APT2. Fluorescence intensities (λex 490/9 nm, λem 545/20 nm, Gain 70, No. of flashes 25, Integration time 100 μs and Z-position 20000 μm) were measured at 30 second (s) time intervals for 20 min. At the end of 20 min kinetic run, emission spectra were obtained (λex 485 nm, Aem510-700 nm, Gain 100, No. of flashes 25, Integration time 100 μs and Z-position 20,000 μm).
# [2] = Water solubility of probes (stated in words); assay type: physicochemical
# [3] = target: T2, APT2 (Homo sapiens, UniProt O95372); assay: In vitro kinetic assay and emission spectra of DPP-1, DPP-2, DPP-3 with purified APT2 (with detergent); assay type: biochemical
# T2 construct: His-tag; made in house; host or cells: E. coli ROSETTA DE3
# T2 sequence (O95372 whole entry): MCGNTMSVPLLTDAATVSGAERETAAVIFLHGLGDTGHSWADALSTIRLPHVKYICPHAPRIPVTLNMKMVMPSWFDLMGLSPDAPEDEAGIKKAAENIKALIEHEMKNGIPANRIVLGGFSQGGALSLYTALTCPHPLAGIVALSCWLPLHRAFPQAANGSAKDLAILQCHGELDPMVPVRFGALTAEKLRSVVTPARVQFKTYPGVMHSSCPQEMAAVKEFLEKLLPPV
# Description: as §1
# [4] = test system: HEK293T cells; assay: Live cell fluorescence imaging and flow cytometry of DPP-2 and DPP-3 in HEK293T cells; assay type: cell-based, human; settings: 1 μM DPP-2 for 15 min, microscopy or flow cytometry
# Description: HEK293T (650,000 cells per dish) cells were plated with 1.5 mL of Dulbecco's Modified Eagle Medium (DMEM) (High Glucose, 10% fetal bovine serum (FBS)) in a 35 mm glass bottom dish (D35-10-1.5-N; Cellvis, Mountain View, Calif., United States of America) 24 hrs prior to imaging. 30 min before the addition of the DPP probe, the cell culture media was removed and cells were washed with 1 mL of Delbecco's phosphate-buffered saline (DPBS). The media was then replaced with 1 mL of DMEM containing 1 μM Hoechst 33342 and either 0.1% DMSO carrier as a control, 1 or 2 μM Palm B, 0.1, 1.0, or 5 μM ML348, and incubated for 30 min at 37° C. and 5% CO2. The media was removed, the cells were washed with 1 mL of Live Cell Imaging Solution (Thermo Fisher Scientific, Waltham, Mass., United States of America), and 1 mL of 1 μM DPP-2 or DPP-3 in Live Cell Imaging Solution was added to each plate. For ML348 0.1, 1.0, or 5 μM was added along with DPP-2 or DPP-3. After incubation for 15 min at 37° C. and 5% CO2, images were obtained on an inverted epi-fluorescence microscope (Olympus IX83; Olympus Corporation, Tokyo, Japan) attached with EMCCD camera (Photometrics EVOLVE™ Delta; Photometrics, Tucson, Ariz., United States of America) with 40× oil objective (N/A 1.3) for DPP-2 (excitation filter 500/20, dichroic chroma 89007, emission filter 535/30, exposure time 200 ms, EM gain 25), Hoechst 33342: (excitation filter 402/15, emission filter 455/50, dichroic chroma 89013, exposure time 30 ms, EM gain 25), and brightfield (exposure time 5 ms, EM gain 5), and for DPP-3 (exposure time 500 ms, EM gain 150), Hoechst 33342: (exposure time 30 ms, EM gain 25), and brightfield (exposure time 20 ms, EM gain 5). Analyses were performed in ImageJ. For data analysis, the average fluorescence intensity per image in each experimental condition was obtained by selecting regions of interest (ROIs) in the brightfield image. For display, the data were normalized to the average fluorescence intensity of the control conditions. Each experiment was repeated at least three separate times with identical results.
# Cells were plated on a 10 cm dish with 10 mL of DMEM/High Glucose (10% FBS, 1% P/S, L-Glutamine, Sodium pyruvate) 36-48 hours prior to the day of experiment and maintained at 37° C., 5% CO2 so as to obtain 80-90% confluency. Cells were washed with DPBS and trypsinized with 1 mL 0.05% Trypsin. 5 mL of DMEM/High Glucose (10% FBS, L-Glutamine, Sodium pyruvate) was added and cells were spun down at 1200 rpm for 3 min. Media was discarded and cells were resuspended in 5 mL of Live Cell Imaging Solution and again spun down at 1200 rpm for 3 min. The cells pellets obtained were resuspended in 3-5 mL of Live Cell Imaging Solution and divided into 500 μL aliquots. The aliquots were treated with either 0.2% DMSO carrier or 1 μM of PalmB/ML348 or 1 μM/5 μM of ML349 inhibitor. After 30 min of incubation at room temperature, 1 μL of 2.5 mM DPP-3 in DMSO was added to each aliquot for a final concentration of 5 μM, and the solutions were mixed. After 5 min incubation at room temperature, fluorescence signal in FITC channel was measured for 10000 cells (5000 for HeLa experiments) on a LSR-Fortessa 4-15 HTS (BD digital instrument, 488 nm laser with 530/30 nm filter for FITC; BD, Franklin Lakes, N.J., United States of America). For analyzing DPP2 in HEK293T cells, the aliquots were treated with either 0.2% DMSO carrier or 2 μM of PalmB, 5 or 20 μM of ML348/ML349 and then analyzed by the protocol as mentioned above. Data was analyzed by FlowJo software version 10.0.8. For comparison of A431 starved versus non-starved, parallel 10 cm dishes of A431 cells were plated in 10 mL of DMEM (high glucose, 10% FBS, 1% P/S), and grown for 36 h. The growth media was removed, and replaced by 10 mL of either DMEM (High glucose) with 10% FBS to maintain “growth” conditions, or DMEM (High glucose) without FBS respectively for “starvation” conditions, and incubated for 14 h. […]
# T1 sequence (O75608 whole entry): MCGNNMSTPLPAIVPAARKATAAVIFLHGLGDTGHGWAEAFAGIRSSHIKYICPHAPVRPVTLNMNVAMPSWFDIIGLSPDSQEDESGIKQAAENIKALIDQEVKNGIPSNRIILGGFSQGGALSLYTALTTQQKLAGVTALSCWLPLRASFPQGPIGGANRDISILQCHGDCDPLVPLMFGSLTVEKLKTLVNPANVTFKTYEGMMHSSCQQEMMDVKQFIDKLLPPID
structure (smiles),measurement,setting,value
CCCCCCCC(=O)SC[C@@H](C(=O)NC)N(C)C(=O)Oc1ccc2c(c1)Oc1cc(N(C)C)ccc1C21OC(=O)c2ccccc21 (some centres unmarked) [DPP-2],enhancement in fluorescence signal,"[1]; 5 μM probe, 50 nM APT1, 20 min",200 fold
same,performance as substrate / reaction kinetics,[1]; purified APT1,slightly better than DPP-1
same,water solubility,[2],water soluble
same,performance as substrate,[3],slightly better than DPP-1
same,probe fluorescent signal in live cells,[4],robust intracellular fluorescent signal

# Reference: patent US10413583B2, “Synthetic substrates for enzymes that catalyze reactions of modified cysteines and related methods” (The University of Chicago, priority 2016, dated 2019)
